According to paper PMC7146544, “Dual Plasmepsin-Targeting Antimalarial Agents Disrupt Multiple Stages of the Malaria Parasite Life Cycle” (Cell Host & Microbe, 2020):
“Also recorded” adds a separate entry of the source.

System: P. berghei liver stages
Assay: In vitro analysis of P. berghei liver parasites in HepG2 cells
Assay type: cell-based, Plasmodium berghei
Details: 100 nM from 24 hpi
Experimental: To infect cells, freshly isolated PbmCherryLuci salivary gland sporozoites were resuspended in complete medium and 10^4 sporozoites added to each well (MOI 0.34) before spinoculation at 500 x g for 3 min. Sporozoites were allowed to infect cells for 3 h before washing with complete medium. […] The compound containing medium was changed the next morning before 48 hpi to prevent removal of detached cells and merosomes in the supernatant at later time points ([Sturm et al., 2006]). To measure inhibition of parasitised cell detachment in the treated cultures, each well was imaged for mCherry at 20x magnification using an Opera Phenix High Content Screening System (PerkinElmer) at 48 hpi (live cell microscopy) and again at 65 hpi following fixation with 4% formalin in PBS, and the number of mCherry^+ parasites counted using the Columbus Image Data Storage and Analysis System (PerkinElmer). Cell detachment was calculated as the percent of parasites lost from the monolayer between 48 – 65 hpi. The culture supernatant containing merosomes and detached parasitised cells from each well was collected at 65 hpi, washed once in complete media by centrifugation at 500 x g for 3 min, then i.v. injected into individual male Swiss mice. Daily Giemsa stained thin blood smears were monitored for patent blood infection as described previously.
Following fixation at 65 hpi, infected hepatocyte monolayers were blocked and permeabilized in PBS containing 1% BSA and 0.1% Triton X-100 (blocking buffer) for 1 h before incubation with polyclonal Goat-anti-PbUIS4 (1:500) and Rabbit-anti-PyMSP1_19 antiserum (1:200) for 1 h. After 3 washes in PBS to remove primary antibodies, wells were incubated sequentially with secondary antibodies recognizing Goat IgG (Alexa Fluor 488; 1:500) and then Rabbit IgG (Alexa Fluor 633; 1:500) for 1 h, separated by 3 washes with PBS. All antibody incubations were performed in blocking buffer at room temperature protected from light, and 2 μg/mL DAPI was added to the last incubation with secondary antibody to stain DNA. The center of each well was then imaged across a 12 μm z stack at 63x magnification using an Opera Phenix (PerkinElmer) for the above fluorochromes as well as mCherry to reveal parasite cytoplasm. Data was transferred to Columbus (PerkinElmer) and at least 70 parasites per condition were then manually scored based on a previously described staging system ([Graewe et al., 2011]). […] More extensive membrane invaginations surrounding individual nuclei with well segmented parasite cytoplasm and intact UIS4 staining were scored as ‘merozoite’ stage. ‘Egressed’ parasites were classified as either well segmented merozoite stages with evidence for PVM breakdown, or largely intact PVM vacuoles in which significant loss of parasite material was evident (Figure S6).

SMILES: CCC1(CC)CC(=O)N([C@@H]2CCOc3ccc(C(=O)N[C@H]4CC(C)(C)Oc5ccccc54)cc32)C(=N)N1 [WM382]
- detachment of parasitized HepG2 cells at 65 hpi: decrease in detachment; also recorded: reduced detachment of parasitized HepG2 cells
- egress of exoerythrocytic merozoites from hepatocytes in vitro: incomplete inhibitory effect; also recorded: reduced rates
- liver parasite size and maturity at 65 hpi: increased size of parasites; also recorded: accumulation of larger, mature liver parasites containing merozoites without PVM degradation
- merozoite formation by liver stages: normal
- liver parasite number or size at 48 hpi (HepG2 cells): did not reduce parasite number or size
